Structures can show the parent of a compound that is named as a salt.
Biological target: T1, human muscarinic acetylcholine M3 receptor (Homo sapiens, UniProt P20309)
T1 construct: expressed in transfected cells; host or cells: CHO cells, stably transfected; membranes
Assay: biochemical
Type: binding

T1 sequence (P20309 whole entry): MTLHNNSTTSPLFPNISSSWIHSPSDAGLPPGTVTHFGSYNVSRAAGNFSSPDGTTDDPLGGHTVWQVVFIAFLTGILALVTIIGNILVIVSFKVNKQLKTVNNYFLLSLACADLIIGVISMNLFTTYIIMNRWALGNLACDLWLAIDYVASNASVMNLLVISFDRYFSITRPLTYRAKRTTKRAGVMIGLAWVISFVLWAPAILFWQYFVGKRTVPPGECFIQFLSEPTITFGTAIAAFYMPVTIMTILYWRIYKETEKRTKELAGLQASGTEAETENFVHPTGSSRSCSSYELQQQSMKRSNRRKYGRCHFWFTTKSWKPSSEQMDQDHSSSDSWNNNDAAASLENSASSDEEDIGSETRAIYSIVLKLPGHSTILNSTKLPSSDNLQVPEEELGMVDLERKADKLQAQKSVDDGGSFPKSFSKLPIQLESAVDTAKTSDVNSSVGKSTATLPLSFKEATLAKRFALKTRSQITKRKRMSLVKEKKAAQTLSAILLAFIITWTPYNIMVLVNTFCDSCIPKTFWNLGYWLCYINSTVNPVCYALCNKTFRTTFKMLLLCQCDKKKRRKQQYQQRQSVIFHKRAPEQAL

| SMILES | Ki [nM] |
| --- | --- |
| O=C(NCC[N+]12CCC(CC1)[C@@H](OC(=O)C(O)(c1ccccc1)c1ccccc1)C2)c1cnccn1 [Example 138, (R)-3-(2-Hydroxy-2,2-diphenyl-acetoxy)-1-(2-[{pyrazine-2-carbonyl)-amino]-ethyl}-1-azonia-bicyclo[2.2.2]octane trifluoroacetate] | 2.2 |
| O=C(C[N+]12CCC(CC1)[C@@H](OC(=O)C(O)(c1ccccc1)c1ccccc1)C2)NCCc1cccs1 [Example 96, (R)-3-(2-Hydroxy-2,2-diphenyl-acetoxy)-1-[(2-thiophen-2-yl-ethylcarbamoyl)-methyl]-1-azonia-bicyclo[2.2.2]octane trifluoroacetate] | 4.6 |
| O=C(C[N+]12CCC(CC1)[C@@H](OC(=O)C(O)(c1cccs1)c1cccs1)C2)Nc1ccncn1 [Example 244, (R)-3-(2-Hydroxy-2,2-di-thiophen-2-yl-acetoxy)-1-(pyrimidin-4-ylcarbamoylmethyl)-1-azonia-bicyclo[2.2.2]octane bromide] | 0.3 |
| O=C(Cc1ccccc1)NCCC[N+]12CCC(CC1)[C@@H](OC(=O)C(O)(c1ccccc1)c1ccccc1)C2 [Example 34, (R)-3-(2-Hydroxy-2,2-diphenyl-acetoxy)-1-(3-phenylacetylamino-propyl)-1-azonia-bicyclo[2.2.2]octane trifluoroacetate] | 2.3 |
| O=C(C[N+]12CCC(CC1)[C@@H](OC(=O)C(O)(c1ccccc1)c1ccccc1)C2)Nc1ccccc1 [Example 52, (R)-3-(2-Hydroxy-2,2-diphenyl-acetoxy)-1-phenylcarbamoylmethyl-1-azonia-bicyclo[2.2.2]octane] | 1.9 |
| O=C(NCC[N+]12CCC(CC1)[C@@H](OC(=O)C(O)(c1ccccc1)c1ccccc1)C2)C1(O)CC1 [Example 221, (R)-1-[2-[(1-Hydroxy-cyclo-propanecarbonyl)-amino]-ethyl]-3-(2-hydroxy-2,2-diphenyl-acetoxy)-1-azonia-bicyclo[2.2.2]-octane hexafluorophosphate] | 1.3 |
| O=C(C[N+]12CCC(CC1)[C@@H](OC(=O)C(O)(c1cccs1)c1cccs1)C2)Nc1ccccc1 [Example 76, (R)-3-(2-Hydroxy-2,2-di-thiophen-2-yl-acetoxy)-1-phenylcarbamoylmethyl-1-azonia-bicyclo[2.2.2]octane trifluoroacetate] | 1.1 |
| O=C(C[N+]12CCC(CC1)[C@@H](OC(=O)C(O)(c1cccs1)c1cccs1)C2)Nc1cnccn1 [Example 159, (R)-3-(2-Hydroxy-2,2-di-thiophen-2-yl-acetoxy)-1-(pyrazin-2-ylcarbamoylmethyl)-1-azonia-bicyclo[2.2.2]octane bromide] | 0.7 |
| O=C(C[N+]12CCC(CC1)[C@@H](OC(=O)C(O)(c1ccccc1)c1ccccc1)C2)Nc1ccon1 [Example 242, (R)-3-(2-Hydroxy-2,2-diphenyl-acetoxy)-1-(isoxazol-3ylcarbamoylmethyl)-1-azonia-bicyclo[2.2.2]octane bromide] | 0.3 |
